Measurements reported in ChEMBL document CHEMBL5291721, “A preclinical secondary pharmacology resource illuminates target-adverse drug reaction associations of marketed drugs” (Nat Commun, 2023).

What was measured:
[1] = biological target: Voltage-dependent N-type calcium channel subunit alpha-1B (Rattus norvegicus, UniProt Q02294); assay type: functional
[2] = biological target: Neurotensin receptor type 1 (Homo sapiens, UniProt P30989)
Estrogen receptor beta = Estrogen receptor beta (Homo sapiens, UniProt Q92731)
[3] = biological target: 5-hydroxytryptamine receptor 2B (Homo sapiens, UniProt P41595)
[4] = biological target: T1, Muscarinic acetylcholine receptor M2 (Homo sapiens, UniProt P08172)
T1 sequence (P08172 whole entry): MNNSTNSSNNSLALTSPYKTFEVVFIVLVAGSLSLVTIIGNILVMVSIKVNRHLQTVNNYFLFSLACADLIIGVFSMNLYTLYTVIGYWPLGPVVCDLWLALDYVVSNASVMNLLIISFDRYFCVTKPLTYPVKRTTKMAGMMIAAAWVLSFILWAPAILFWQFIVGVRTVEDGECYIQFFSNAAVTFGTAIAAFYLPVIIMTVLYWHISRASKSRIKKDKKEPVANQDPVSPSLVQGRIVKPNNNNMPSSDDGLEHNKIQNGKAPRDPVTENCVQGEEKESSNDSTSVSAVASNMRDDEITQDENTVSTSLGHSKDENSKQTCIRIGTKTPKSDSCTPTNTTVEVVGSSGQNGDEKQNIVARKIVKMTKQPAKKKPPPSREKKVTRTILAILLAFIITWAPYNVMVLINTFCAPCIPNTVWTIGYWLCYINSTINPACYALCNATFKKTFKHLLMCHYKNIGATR

Glucagon receptor = Glucagon receptor (Homo sapiens, UniProt P47871)
[5] = biological target: T2, 5-hydroxytryptamine receptor 1A (Homo sapiens, UniProt P08908)
T2 sequence (P08908 whole entry): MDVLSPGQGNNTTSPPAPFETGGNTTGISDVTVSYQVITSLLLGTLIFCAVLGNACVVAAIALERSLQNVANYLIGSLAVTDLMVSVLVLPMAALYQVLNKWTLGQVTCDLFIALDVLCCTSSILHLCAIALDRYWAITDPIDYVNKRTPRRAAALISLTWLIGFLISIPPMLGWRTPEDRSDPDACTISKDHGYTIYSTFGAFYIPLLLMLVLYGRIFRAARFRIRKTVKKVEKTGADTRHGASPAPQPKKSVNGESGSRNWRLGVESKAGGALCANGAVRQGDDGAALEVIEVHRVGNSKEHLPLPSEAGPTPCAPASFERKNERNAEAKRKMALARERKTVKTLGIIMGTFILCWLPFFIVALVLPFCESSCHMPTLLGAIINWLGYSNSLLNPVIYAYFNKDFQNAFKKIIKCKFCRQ

Histamine H2 receptor = Histamine H2 receptor (Homo sapiens, UniProt P25021)
Acetylcholinesterase = Acetylcholinesterase (Homo sapiens, UniProt P22303); assay type: functional
Androgen receptor = biological target: T3, Androgen receptor (Rattus norvegicus, UniProt P15207)
T3 sequence (P15207 whole entry): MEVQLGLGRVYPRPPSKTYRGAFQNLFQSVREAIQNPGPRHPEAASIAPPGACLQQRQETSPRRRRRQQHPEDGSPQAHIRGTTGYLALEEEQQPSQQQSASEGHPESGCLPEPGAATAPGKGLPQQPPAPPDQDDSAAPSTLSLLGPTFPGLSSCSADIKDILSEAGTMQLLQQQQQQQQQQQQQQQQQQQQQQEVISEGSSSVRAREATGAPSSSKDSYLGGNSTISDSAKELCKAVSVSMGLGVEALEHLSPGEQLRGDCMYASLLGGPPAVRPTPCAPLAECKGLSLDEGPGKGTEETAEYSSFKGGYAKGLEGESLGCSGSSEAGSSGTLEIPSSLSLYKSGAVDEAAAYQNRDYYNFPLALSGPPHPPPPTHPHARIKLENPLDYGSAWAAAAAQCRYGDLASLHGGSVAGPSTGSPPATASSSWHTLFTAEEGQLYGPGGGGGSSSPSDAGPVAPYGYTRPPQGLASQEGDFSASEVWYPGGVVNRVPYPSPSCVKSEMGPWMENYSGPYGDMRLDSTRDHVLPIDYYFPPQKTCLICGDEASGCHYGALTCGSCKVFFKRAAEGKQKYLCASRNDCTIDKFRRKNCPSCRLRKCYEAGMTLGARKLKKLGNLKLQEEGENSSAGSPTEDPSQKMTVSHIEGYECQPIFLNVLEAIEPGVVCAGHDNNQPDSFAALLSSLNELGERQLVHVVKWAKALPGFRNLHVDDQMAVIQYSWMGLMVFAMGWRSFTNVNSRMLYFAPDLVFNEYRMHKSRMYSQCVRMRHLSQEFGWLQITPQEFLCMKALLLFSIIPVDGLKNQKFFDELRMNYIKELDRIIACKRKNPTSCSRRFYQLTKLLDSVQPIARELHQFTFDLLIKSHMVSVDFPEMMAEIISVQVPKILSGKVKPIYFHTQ

Thromboxane A2 receptor = biological target: T4, Thromboxane A2 receptor (Homo sapiens, UniProt P21731); assay type: functional
T4 sequence (P21731 whole entry): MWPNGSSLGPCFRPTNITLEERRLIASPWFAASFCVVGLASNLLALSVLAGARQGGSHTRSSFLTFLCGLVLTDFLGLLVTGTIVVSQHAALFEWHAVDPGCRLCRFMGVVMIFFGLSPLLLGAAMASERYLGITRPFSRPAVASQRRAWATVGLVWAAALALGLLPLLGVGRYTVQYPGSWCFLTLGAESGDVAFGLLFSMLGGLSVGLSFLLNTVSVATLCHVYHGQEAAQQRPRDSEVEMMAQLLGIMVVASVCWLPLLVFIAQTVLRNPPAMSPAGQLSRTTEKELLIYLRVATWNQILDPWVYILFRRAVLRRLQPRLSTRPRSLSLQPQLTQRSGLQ
Also: assay procedure not described here.

Sequence of Neurotensin receptor type 1 (P30989 whole entry): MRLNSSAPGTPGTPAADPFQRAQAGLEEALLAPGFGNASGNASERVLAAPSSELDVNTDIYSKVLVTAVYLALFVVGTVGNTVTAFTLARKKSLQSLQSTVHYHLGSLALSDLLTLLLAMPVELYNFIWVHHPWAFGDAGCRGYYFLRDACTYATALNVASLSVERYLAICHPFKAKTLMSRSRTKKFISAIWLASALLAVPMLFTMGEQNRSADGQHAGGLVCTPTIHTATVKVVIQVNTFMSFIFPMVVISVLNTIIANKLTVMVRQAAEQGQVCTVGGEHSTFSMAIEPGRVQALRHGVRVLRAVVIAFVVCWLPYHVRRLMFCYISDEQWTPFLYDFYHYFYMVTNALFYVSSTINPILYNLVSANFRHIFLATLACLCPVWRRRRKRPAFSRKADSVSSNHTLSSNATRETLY
Sequence of Glucagon receptor (P47871 whole entry): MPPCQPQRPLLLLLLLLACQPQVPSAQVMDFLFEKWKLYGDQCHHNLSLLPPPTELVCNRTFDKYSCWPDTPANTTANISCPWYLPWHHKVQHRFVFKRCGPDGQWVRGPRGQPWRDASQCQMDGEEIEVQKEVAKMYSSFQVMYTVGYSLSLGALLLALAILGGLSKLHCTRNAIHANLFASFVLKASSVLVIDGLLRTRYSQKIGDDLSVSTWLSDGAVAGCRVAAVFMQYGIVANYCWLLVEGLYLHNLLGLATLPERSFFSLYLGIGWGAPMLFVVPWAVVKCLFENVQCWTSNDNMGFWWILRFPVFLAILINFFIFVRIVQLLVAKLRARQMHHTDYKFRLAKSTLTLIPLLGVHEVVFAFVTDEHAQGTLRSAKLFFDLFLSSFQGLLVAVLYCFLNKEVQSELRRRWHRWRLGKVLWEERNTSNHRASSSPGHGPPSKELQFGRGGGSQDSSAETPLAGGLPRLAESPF
Sequence of Voltage-dependent N-type calcium channel subunit alpha-1B (Q02294 whole entry): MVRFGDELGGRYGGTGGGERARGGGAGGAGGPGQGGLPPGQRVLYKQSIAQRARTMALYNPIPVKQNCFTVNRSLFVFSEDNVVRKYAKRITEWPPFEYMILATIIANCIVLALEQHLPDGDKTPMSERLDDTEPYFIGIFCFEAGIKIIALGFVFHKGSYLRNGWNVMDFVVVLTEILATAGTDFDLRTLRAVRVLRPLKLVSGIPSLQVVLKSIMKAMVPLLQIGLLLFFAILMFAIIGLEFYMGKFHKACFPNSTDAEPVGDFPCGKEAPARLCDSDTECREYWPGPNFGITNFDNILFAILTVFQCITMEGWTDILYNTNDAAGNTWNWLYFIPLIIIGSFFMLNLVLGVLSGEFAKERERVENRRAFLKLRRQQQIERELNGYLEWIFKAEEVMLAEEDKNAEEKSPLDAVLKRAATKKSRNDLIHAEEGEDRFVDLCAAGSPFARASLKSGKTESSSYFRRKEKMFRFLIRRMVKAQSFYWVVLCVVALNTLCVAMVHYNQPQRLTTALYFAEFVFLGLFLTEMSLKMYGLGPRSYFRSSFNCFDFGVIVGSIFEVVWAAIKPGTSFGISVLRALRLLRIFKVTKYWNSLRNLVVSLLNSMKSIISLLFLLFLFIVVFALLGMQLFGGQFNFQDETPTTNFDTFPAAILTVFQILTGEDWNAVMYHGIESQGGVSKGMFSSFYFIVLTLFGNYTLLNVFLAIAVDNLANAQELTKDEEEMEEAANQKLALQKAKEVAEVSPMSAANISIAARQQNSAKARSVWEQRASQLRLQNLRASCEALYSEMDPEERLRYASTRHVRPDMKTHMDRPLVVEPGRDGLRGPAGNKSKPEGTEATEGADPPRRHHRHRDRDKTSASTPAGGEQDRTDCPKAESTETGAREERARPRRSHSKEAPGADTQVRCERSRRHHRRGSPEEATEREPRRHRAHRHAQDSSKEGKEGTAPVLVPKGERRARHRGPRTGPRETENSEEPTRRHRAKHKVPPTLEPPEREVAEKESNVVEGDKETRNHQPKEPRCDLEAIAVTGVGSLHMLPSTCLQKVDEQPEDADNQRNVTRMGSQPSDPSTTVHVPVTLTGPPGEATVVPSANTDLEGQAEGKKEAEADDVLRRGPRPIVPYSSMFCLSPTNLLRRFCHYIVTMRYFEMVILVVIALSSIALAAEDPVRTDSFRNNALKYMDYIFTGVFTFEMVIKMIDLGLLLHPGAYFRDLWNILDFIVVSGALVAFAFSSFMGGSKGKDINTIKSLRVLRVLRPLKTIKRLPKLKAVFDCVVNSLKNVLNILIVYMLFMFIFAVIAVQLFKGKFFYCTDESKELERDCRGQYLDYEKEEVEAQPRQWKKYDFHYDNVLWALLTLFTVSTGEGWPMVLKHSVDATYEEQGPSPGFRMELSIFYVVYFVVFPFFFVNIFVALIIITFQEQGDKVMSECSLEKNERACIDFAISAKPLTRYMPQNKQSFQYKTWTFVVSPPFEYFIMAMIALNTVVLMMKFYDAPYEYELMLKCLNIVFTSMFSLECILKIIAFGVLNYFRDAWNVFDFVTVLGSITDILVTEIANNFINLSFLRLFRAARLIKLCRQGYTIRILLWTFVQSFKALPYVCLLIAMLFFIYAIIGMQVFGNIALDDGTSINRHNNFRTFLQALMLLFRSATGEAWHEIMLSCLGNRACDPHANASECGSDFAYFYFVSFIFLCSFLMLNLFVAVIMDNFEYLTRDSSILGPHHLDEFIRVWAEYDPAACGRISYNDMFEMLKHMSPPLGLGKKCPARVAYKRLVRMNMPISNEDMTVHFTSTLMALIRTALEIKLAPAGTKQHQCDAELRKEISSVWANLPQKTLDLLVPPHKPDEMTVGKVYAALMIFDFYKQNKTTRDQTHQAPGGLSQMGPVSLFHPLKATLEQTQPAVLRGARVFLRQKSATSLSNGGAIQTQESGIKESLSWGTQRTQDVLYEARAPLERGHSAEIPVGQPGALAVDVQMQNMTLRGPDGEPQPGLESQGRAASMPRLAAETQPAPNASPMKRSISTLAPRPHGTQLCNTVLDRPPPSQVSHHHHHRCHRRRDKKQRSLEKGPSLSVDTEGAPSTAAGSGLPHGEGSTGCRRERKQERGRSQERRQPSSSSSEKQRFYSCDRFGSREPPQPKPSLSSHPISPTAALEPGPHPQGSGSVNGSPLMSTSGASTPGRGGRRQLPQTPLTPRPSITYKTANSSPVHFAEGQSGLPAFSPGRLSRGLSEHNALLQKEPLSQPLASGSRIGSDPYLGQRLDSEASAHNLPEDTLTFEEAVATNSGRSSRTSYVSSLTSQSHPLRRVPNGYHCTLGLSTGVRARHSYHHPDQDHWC
Sequence of Acetylcholinesterase (P22303 whole entry): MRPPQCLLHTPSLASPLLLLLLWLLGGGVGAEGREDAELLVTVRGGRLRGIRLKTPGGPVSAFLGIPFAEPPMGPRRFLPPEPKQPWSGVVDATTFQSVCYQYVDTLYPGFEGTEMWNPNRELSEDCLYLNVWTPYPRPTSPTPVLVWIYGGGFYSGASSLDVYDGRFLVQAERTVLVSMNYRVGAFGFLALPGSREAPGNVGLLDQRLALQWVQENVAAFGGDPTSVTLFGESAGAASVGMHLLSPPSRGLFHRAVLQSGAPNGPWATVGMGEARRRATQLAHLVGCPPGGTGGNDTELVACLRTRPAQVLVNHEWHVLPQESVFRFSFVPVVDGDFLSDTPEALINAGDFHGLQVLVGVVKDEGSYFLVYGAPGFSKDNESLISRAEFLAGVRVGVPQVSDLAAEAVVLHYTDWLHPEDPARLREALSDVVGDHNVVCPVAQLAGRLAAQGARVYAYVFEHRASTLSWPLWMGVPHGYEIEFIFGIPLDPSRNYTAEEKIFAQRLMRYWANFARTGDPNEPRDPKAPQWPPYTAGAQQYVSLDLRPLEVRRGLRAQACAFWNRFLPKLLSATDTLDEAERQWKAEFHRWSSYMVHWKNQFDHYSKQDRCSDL
Sequence of Histamine H2 receptor (P25021 whole entry): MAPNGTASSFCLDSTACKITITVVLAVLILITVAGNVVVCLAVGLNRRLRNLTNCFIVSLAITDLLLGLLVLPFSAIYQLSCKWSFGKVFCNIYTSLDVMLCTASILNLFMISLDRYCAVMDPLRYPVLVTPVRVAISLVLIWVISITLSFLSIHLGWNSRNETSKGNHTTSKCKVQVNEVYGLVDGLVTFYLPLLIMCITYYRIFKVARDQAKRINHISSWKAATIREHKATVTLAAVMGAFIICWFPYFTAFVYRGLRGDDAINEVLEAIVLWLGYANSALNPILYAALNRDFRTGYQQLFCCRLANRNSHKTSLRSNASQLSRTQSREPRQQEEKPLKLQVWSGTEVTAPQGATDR
Sequence of Estrogen receptor beta (Q92731 whole entry): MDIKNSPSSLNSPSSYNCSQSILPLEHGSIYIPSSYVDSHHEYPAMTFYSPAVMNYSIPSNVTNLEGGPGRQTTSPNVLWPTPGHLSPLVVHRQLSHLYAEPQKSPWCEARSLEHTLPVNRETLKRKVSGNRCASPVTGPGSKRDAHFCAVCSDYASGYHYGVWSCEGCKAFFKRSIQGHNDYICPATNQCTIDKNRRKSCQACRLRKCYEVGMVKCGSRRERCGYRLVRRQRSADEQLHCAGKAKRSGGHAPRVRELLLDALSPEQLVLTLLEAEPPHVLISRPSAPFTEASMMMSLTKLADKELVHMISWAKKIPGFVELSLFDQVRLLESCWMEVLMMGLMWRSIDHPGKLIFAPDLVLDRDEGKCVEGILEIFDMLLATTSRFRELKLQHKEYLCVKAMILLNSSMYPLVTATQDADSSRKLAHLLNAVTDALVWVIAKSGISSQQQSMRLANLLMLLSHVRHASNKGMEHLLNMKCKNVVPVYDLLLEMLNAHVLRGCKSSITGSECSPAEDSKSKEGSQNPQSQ

| Compound | AC50 [1] [µM] | AC50 [2] [µM] | AC50 [3] [µM] | AC50 (Glucagon receptor) [µM] | AC50 [5] [µM] | AC50 (Acetylcholinesterase) [µM] | AC50 (Thromboxane A2 receptor) [µM] | further results |
| --- | --- | --- | --- | --- | --- | --- | --- | --- |
| CCOC(=O)[C@H](CCc1ccccc1)N[C@@H](C)C(=O)N1Cc2ccccc2C[C@H]1C(=O)O | > 10 | > 30 | > 10 | > 30 | > 10 |  |  | AC50 (Estrogen receptor beta): > 30 µM; AC50 [4]: > 10 µM; AC50 (Histamine H2 receptor): > 10 µM |
| CCC[C@@]1(CCc2ccccc2)CC(O)=C([C@H](CC)c2cccc(NS(=O)(=O)c3ccc(C(F)(F)F)cn3)c2)C(=O)O1 |  |  |  |  |  | > 30 |  |  |
| C=CC1=C(C(=O)O)N2C(=O)[C@@H](NC(=O)/C(=N\O)c3csc(N)n3)[C@H]2SC1 |  |  |  |  |  |  |  | AC50 (Androgen receptor): > 30 µM |
| O=C(O)COC(=O)Cc1ccccc1Nc1c(Cl)cccc1Cl [ACECLOFENAC] |  |  |  |  | > 10 |  |  | AC50 (Androgen receptor): > 30 µM |
| CN(C)CCc1c[nH]c2ccc(CS(=O)(=O)N3CCCC3)cc12 [ALMOTRIPTAN] |  |  | 0.51 |  |  |  |  |  |
| CN(C)CCC=C1c2ccccc2CCc2ccccc21 [AMITRIPTYLINE] | > 10 | > 30 |  | > 30 | 3.77 |  | > 30 | AC50 (Estrogen receptor beta): > 30 µM |
| CN1CC2c3ccccc3Oc3ccc(Cl)cc3C2C1 (stereo unspecified) [ASENAPINE] |  |  |  |  |  | > 30 |  |  |
| CC(=O)Oc1ccccc1C(=O)O [ASPIRIN] | > 10 | > 30 | > 10 | > 30 | > 10 |  | > 30 | AC50 (Estrogen receptor beta): > 30 µM; AC50 (Androgen receptor): > 30 µM; AC50 (Histamine H2 receptor): > 10 µM |
| Cn1cnc2c(F)c(Nc3ccc(Br)cc3F)c(C(=O)NOCCO)cc21 [BINIMETINIB] |  |  |  |  |  | > 30 | > 30 |  |
| C[C@H](CS)C(=O)N1CCC[C@H]1C(=O)O [CAPTOPRIL] |  |  |  |  | > 10 |  |  | AC50 (Androgen receptor): > 30 µM |
| C[C@H](CCC(=O)O)[C@H]1CC[C@H]2[C@@H]3[C@H](O)C[C@@H]4C[C@H](O)CC[C@]4(C)[C@H]3CC[C@]12C [CHENODIOL] |  |  |  |  |  | > 30 |  |  |
| CN(C)CCCC1(c2ccc(F)cc2)OCc2cc(C#N)ccc21 (stereo unspecified) [CITALOPRAM] | > 10 | > 30 | 0.273 | > 30 | > 10 |  |  | AC50 (Estrogen receptor beta): > 30 µM |
| C[C@H](Nc1ncnc2[nH]cnc12)c1cc2cccc(Cl)c2c(=O)n1-c1ccccc1 [DUVELISIB] |  |  |  |  |  | > 30 |  |  |
| C[C@]12CCC(=O)C=C1CC[C@H]1[C@@H]3CC[C@](O)(C(=O)CO)[C@@]3(C)C[C@H](O)[C@@]12F [FLUDROCORTISONE] | > 10 | > 30 | > 10 | > 30 | > 10 |  |  | AC50 (Estrogen receptor beta): > 30 µM; AC50 [4]: > 10 µM; AC50 (Histamine H2 receptor): > 10 µM |
| NCC1(CC(=O)O)CCCCC1 [GABAPENTIN] |  | > 30 | > 10 | > 30 | > 10 | > 30 | > 30 | AC50 [4]: > 10 µM; AC50 (Histamine H2 receptor): > 10 µM |
| OCCOCCN1CCN(C(c2ccccc2)c2ccc(Cl)cc2)CC1 (stereo unspecified) [HYDROXYZINE] | > 10 | > 30 | 0.157 | > 30 | > 10 |  |  | AC50 [4]: 9.04 µM; AC50 (Histamine H2 receptor): 0.188 µM |
| C[C@@H](O)[C@H]1C(=O)N2C(C(=O)O)=C(SCCN=CN)C[C@H]12 [IMIPENEM ANHYDROUS] |  |  |  |  |  | > 300 | > 300 |  |
| Nc1nnc(-c2cccc(Cl)c2Cl)c(N)n1 [LAMOTRIGINE] | > 10 | > 30 | > 10 | > 30 | > 10 |  |  | AC50 (Estrogen receptor beta): > 30 µM; AC50 [4]: > 10 µM; AC50 (Histamine H2 receptor): > 10 µM |
| O=C1[C@@H]2[C@H]3CC[C@H](C3)[C@@H]2C(=O)N1C[C@@H]1CCCC[C@H]1CN1CCN(c2nsc3ccccc23)CC1 [LURASIDONE] |  |  |  |  |  | 1.3 | > 30 |  |
| CO[C@@H]1[C@@H](OC(N)=O)[C@@H](O)[C@H](Oc2ccc3c(O)c(NC(=O)c4ccc(O)c(CC=C(C)C)c4)c(=O)oc3c2C)OC1(C)C [NOVOBIOCIN] |  |  |  |  |  | > 30 | > 30 |  |
| CC(=O)SCC(Cc1ccccc1)C(=O)NCC(=O)OCc1ccccc1 (stereo unspecified) [RACECADOTRIL] | > 10 |  | > 10 |  | > 10 |  |  | AC50 [4]: > 10 µM; AC50 (Histamine H2 receptor): > 10 µM |
| C[C@H](Cn1cnc2c(N)ncnc21)OCP(=O)(O)O [TENOFOVIR ANHYDROUS] |  |  |  |  |  |  |  | AC50 (Androgen receptor): > 30 µM |
| Cc1c(C)c2c(c(C)c1O)CCC(C)(COc1ccc(CC3SC(=O)NC3=O)cc1)O2 (stereo unspecified) [TROGLITAZONE] |  | > 30 |  | > 30 |  |  |  | AC50 (Estrogen receptor beta): > 30 µM; AC50 (Androgen receptor): 3.57 µM |
| c1cnc2cc3c(cc2n1)[C@@H]1CNC[C@H]3C1 [VARENICLINE] |  |  |  |  |  | > 30 | > 30 |  |
| Nc1c2c(nc3ccccc13)CCCC2O (stereo unspecified) [VELNACRINE] |  |  |  |  |  |  | > 30 |  |
